These results are taken from the NIST ThermoML archive (doi:10.1021/je0502647).

This data set can be described thus: activity coefficient (dimensionless); of the first substance listed, at infinite dilution; xn = mol fraction of the nth substance listed. The settings on record: Liquid, gas stripping method, x1 = 0.

± gives the expanded uncertainty stated by the source.

As to `CC(F)F` [1,1-difluoroethane] + C=CCO, the activity coefficient turned out to be 5.09 ± 0.15 (249.94 K); 4.94 ± 0.15 (270.06 K); 4.68 ± 0.14 (289.99 K); 4.39 ± 0.13 (309.98 K); 4.02 ± 0.12 (329.99 K).
Take `C=CC=C` [1,3-butadiene] + C=CCO: the activity coefficient reads like this: (250 K) 4.12 ± 0.12; (270.01 K) 4.06 ± 0.12; (289.99 K) 4.02 ± 0.12; (310 K) 3.89 ± 0.12; (329.99 K) 3.59 ± 0.11.
For `C=CCC` [1-butene] + C=CCO, the activity coefficient is, setting by setting: (249.94 K) 6.08 ± 0.18; (270.01 K) 5.85 ± 0.18; (289.99 K) 5.62 ± 0.17; (310 K) 5.35 ± 0.16; (329.99 K) 5.04 ± 0.15.
As to `CC(C)C` [2-methylpropane] + C=CCO, the activity coefficient is, setting by setting: (249.94 K) 10.5 ± 0.3; (270.01 K) 9.51 ± 0.29; (289.99 K) 8.83 ± 0.26; (310 K) 8.11 ± 0.24; (329.99 K) 7.14 ± 0.21.
Consider `C/C=C/C` [(E)-2-butene] + C=CCO, for which the activity coefficient reads like this: (250 K) 6.23 ± 0.19; (270 K) 5.85 ± 0.18; (289.99 K) 5.67 ± 0.17; (310 K) 5.38 ± 0.16; (329.99 K) 4.91 ± 0.15.
Consider `C/C=C\C` [(Z)-2-butene] + C=CCO, for which the activity coefficient (249.94 K) came to 5.53 ± 0.17; the activity coefficient (270.06 K) came to 5.28 ± 0.16; the activity coefficient (289.99 K) amounted to 5.06 ± 0.15; the activity coefficient (309.98 K) is 4.85 ± 0.15; the activity coefficient (329.99 K) worked out at 4.57 ± 0.14.
As to `CCCC` [butane] + C=CCO, the activity coefficient reads like this: (249.98 K) 9.71 ± 0.29; (270.01 K) 8.84 ± 0.27; (289.99 K) 8.2 ± 0.25; (310 K) 7.58 ± 0.23; (329.99 K) 6.79 ± 0.2.
With `CCCl` [chloroethane] + C=CCO, the activity coefficient reads like this: (249.94 K) 3.09 ± 0.09; (270.06 K) 3.07 ± 0.09; (289.99 K) 2.99 ± 0.09; (309.98 K) 2.87 ± 0.09; (329.99 K) 2.69 ± 0.08.
On the same counts, the results for `COC` [dimethyl ether] + C=CCO are 1.23 ± 0.04, 1.22 ± 0.04, 1.2 ± 0.04, 1.2 ± 0.04 and 1.16 ± 0.04.
